Experiments:
[1] = molecular target: T1, GABA-A receptor; anion channel (Rattus norvegicus) (UniProt O09028+P15431+P18506+P18508+P19969+P20236+P23574+P23576+P28471+P28473+P30191+P62813+P63079+P63138+Q91ZM7+Q9ES14); experiment: Inhibition of GABAA, Chloride Channel, TBOB at 10.0 µM in the Eurofins-Panlabs selectivity screen; type: protein-complex assay; settings: Compound concentration 10.0 uM
Caspase-3 = Caspase-3 (Homo sapiens, UniProt P42574); experiment: IC50 of Caspase 3 at 1.0 µM in the Bayer in-house protease panel
[2] = molecular target: Phosphodiesterase 3 (Homo sapiens) (UniProt Q14432+Q13370); experiment: Inhibition of Phosphodiesterase PDE3 at 10.0 µM in the Eurofins-Panlabs selectivity screen; type: protein assay; settings: Compound concentration 10.0 uM
[3] = molecular target: Monoamine oxidase A (MAO-A) (Homo sapiens, UniProt P21397); experiment: Inhibition of Monoamine Oxidase MAO-A at 10.0 µM in the Eurofins-Panlabs selectivity screen; settings: compound concentration 10 uM
[4] = molecular target: 5-hydroxytryptamine receptor 2C (Homo sapiens) (UniProt P28335); experiment: Inhibition of Serotonin (5-Hydroxytryptamine) 5-HT2C at 10.0 µM in the Eurofins-Panlabs selectivity screen; settings: Compound concentration 10.0 uM
[5] = molecular target: Growth hormone secretagogue receptor type 1 (Homo sapiens) (UniProt Q92847); experiment: Inhibition of Growth Hormone Secretagogue (GHS, Ghrelin) at 10.0 µM in the Eurofins-Panlabs selectivity screen; settings: Compound concentration 10.0 uM
[6] = molecular target: Adenosine receptor A3 (Homo sapiens) (UniProt P0DMS8); experiment: Inhibition of Adenosine A3 at 10.0 µM in the Eurofins-Panlabs selectivity screen; settings: Compound concentration 10.0 uM
[7] = molecular target: B2 bradykinin receptor (Homo sapiens) (UniProt P30411); experiment: Inhibition of Bradykinin B2 at 10.0 µM in the Eurofins-Panlabs selectivity screen; settings: Compound concentration 10.0 uM
[8] = molecular target: Gamma-aminobutyric acid type B receptor subunit 1 (Homo sapiens) (UniProt Q9UBS5); experiment: Inhibition of GABAB, Non-Selective at 10.0 µM in the Eurofins-Panlabs selectivity screen; settings: Rattus norvegicus; Compound concentration 10.0 uM
[9] = molecular target: Thromboxane-A synthase (Homo sapiens) (UniProt P24557); experiment: Inhibition of Thromboxane Synthase at 10.0 µM in the Eurofins-Panlabs selectivity screen; settings: Compound concentration 10.0 uM
[10] = molecular target: 3-hydroxy-3-methylglutaryl-coenzyme A reductase (Homo sapiens) (UniProt P04035); experiment: Inhibition of HMG-CoA Reductase at 10.0 µM in the Eurofins-Panlabs selectivity screen; settings: Compound concentration 10.0 uM
[11] = molecular target: Delta-type opioid receptor (Homo sapiens) (UniProt P41143); experiment: Inhibition of Opiate delta1 (OP1, DOP) at 10.0 µM in the Eurofins-Panlabs selectivity screen; settings: Compound concentration 10.0 uM
[12] = molecular target: Kappa-type opioid receptor (Homo sapiens) (UniProt P41145); experiment: Inhibition of Opiate kappa (OP2, KOP) at 10.0 µM in the Eurofins-Panlabs selectivity screen; settings: Compound concentration 10.0 uM
[13] = molecular target: Calpain-1 catalytic subunit (Homo sapiens, UniProt P07384); experiment: IC50 of Calpain 1 at 1.0 µM in the Bayer in-house protease panel
[14] = molecular target: 3',5'-cyclic-AMP phosphodiesterase 4D (Homo sapiens) (UniProt Q08499); experiment: Inhibition of Phosphodiesterase PDE4D2 at 10.0 µM in the Eurofins-Panlabs selectivity screen; settings: Compound concentration 10.0 uM
[15] = molecular target: Macrophage metalloelastase (Homo sapiens, UniProt P39900); experiment: IC50 of hMMP12 at 1.0 µM in the Bayer in-house protease panel
[16] = molecular target: Neuronal acetylcholine receptor; alpha3/beta4 (Homo sapiens) (UniProt P30926+P32297); experiment: Inhibition of Nicotinic Acetylcholine alpha3beta4 at 10.0 µM in the Eurofins-Panlabs selectivity screen; type: protein-complex assay; settings: Compound concentration 10.0 uM
[17] = molecular target: Nitric oxide synthase, inducible (Homo sapiens) (UniProt P35228); experiment: Inhibition of Nitric Oxide Synthetase, Inducible (iNOS) at 10.0 µM in the Eurofins-Panlabs selectivity screen; settings: Mus musculus; Compound concentration 10.0 uM
[18] = molecular target: Acetylcholinesterase (Homo sapiens) (UniProt P22303); experiment: Inhibition of Cholinesterase, Acetyl, ACES at 10.0 µM in the Eurofins-Panlabs selectivity screen; settings: Compound concentration 10.0 uM
[19] = molecular target: T1, GABA-A receptor; anion channel (Rattus norvegicus); experiment: Inhibition of GABAA, Flunitrazepam, Central at 10.0 µM in the Eurofins-Panlabs selectivity screen; type: protein-complex assay; settings: Compound concentration 10.0 uM
[20] = molecular target: Matrix metalloproteinase-15 (Homo sapiens, UniProt P51511); experiment: IC50 of hMMP15 at 1.0 µM in the Bayer in-house protease panel
[21] = molecular target: Glucocorticoid receptor (Homo sapiens) (UniProt P04150); experiment: Inhibition of Glucocorticoid at 10.0 µM in the Eurofins-Panlabs selectivity screen; settings: Compound concentration 10.0 uM
[22] = molecular target: Polyunsaturated fatty acid lipoxygenase ALOX15 (Homo sapiens) (UniProt P16050); experiment: Inhibition of Lipoxygenase 15-LO at 10.0 µM in the Eurofins-Panlabs selectivity screen; settings: Compound concentration 10.0 uM
[23] = molecular target: P2X receptor (Rattus norvegicus) (UniProt P51579+P49653+P51578+Q64663+P47824+P51577+P49654); experiment: Inhibition of Purinergic P2X at 10.0 µM in the Eurofins-Panlabs selectivity screen; type: protein assay; settings: Compound concentration 10.0 uM
[24] = molecular target: 5-hydroxytryptamine receptor 2A (Homo sapiens) (UniProt P28223); experiment: Inhibition of Serotonin (5-Hydroxytryptamine) 5-HT2A at 10.0 µM in the Eurofins-Panlabs selectivity screen; settings: Compound concentration 10.0 uM
[25] = molecular target: Type-2 angiotensin II receptor (Homo sapiens) (UniProt P50052); experiment: Inhibition of Angiotensin AT2 at 10.0 µM in the Eurofins-Panlabs selectivity screen; settings: Compound concentration 10.0 uM
[26] = molecular target: Type-1 angiotensin II receptor (Homo sapiens) (UniProt P30556); experiment: Inhibition of Angiotensin AT1 at 10.0 µM in the Eurofins-Panlabs selectivity screen; settings: Compound concentration 10.0 uM
[27] = molecular target: Muscarinic acetylcholine receptor M4 (Homo sapiens) (UniProt P08173); experiment: Inhibition of Muscarinic M4 at 10.0 µM in the Eurofins-Panlabs selectivity screen; settings: Compound concentration 10.0 uM
[28] = molecular target: Histamine H1 receptor (Homo sapiens) (UniProt P35367); experiment: Inhibition of Histamine H1 at 10.0 µM in the Eurofins-Panlabs selectivity screen; settings: Compound concentration 10.0 uM
[29] = molecular target: Disintegrin and metalloproteinase domain-containing protein 8 (Homo sapiens, UniProt P78325); experiment: IC50 of hADAM8 at 1.0 µM in the Bayer in-house protease panel
[30] = molecular target: D(3) dopamine receptor (Homo sapiens) (UniProt P35462); experiment: Inhibition of Dopamine D3 at 10.0 µM in the Eurofins-Panlabs selectivity screen; settings: Compound concentration 10.0 uM
[31] = molecular target: Nitric oxide synthase 1 (Homo sapiens) (UniProt P29475); experiment: Inhibition of Nitric Oxide Synthase, Neuronal (nNOS) at 10.0 µM in the Eurofins-Panlabs selectivity screen; settings: Rattus norvegicus; Compound concentration 10.0 uM
[32] = molecular target: Vasopressin V1a receptor (Homo sapiens) (UniProt P37288); experiment: Inhibition of Vasopressin V1A at 10.0 µM in the Eurofins-Panlabs selectivity screen; settings: Compound concentration 10.0 uM
[33] = molecular target: Disintegrin and metalloproteinase domain-containing protein 10 (Homo sapiens, UniProt O14672); experiment: IC50 of hADAM10 at 1.0 µM in the Bayer in-house protease panel
Sequence of Disintegrin and metalloproteinase domain-containing protein 10 (O14672 whole entry, the tested form may be a part): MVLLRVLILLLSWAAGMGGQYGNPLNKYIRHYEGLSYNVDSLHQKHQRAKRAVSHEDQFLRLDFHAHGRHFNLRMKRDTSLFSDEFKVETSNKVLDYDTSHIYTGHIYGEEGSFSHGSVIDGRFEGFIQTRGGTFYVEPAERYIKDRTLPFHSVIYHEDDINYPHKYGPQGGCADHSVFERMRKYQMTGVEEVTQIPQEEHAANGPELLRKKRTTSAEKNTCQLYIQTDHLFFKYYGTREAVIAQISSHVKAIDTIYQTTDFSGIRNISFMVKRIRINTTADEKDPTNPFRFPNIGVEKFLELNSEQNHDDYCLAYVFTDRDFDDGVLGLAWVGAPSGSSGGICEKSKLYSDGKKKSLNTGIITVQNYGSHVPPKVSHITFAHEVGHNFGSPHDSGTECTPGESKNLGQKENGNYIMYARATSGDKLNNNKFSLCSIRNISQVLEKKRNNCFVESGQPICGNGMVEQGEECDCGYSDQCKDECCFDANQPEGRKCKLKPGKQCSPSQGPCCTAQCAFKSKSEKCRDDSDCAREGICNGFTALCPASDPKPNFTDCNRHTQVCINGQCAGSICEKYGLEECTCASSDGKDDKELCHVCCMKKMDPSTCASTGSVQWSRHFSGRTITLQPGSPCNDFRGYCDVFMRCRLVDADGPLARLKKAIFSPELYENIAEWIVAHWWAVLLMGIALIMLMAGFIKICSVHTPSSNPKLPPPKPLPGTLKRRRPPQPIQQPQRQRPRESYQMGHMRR

Sequence of Growth hormone secretagogue receptor type 1 (Homo sapiens) (Q92847 whole entry): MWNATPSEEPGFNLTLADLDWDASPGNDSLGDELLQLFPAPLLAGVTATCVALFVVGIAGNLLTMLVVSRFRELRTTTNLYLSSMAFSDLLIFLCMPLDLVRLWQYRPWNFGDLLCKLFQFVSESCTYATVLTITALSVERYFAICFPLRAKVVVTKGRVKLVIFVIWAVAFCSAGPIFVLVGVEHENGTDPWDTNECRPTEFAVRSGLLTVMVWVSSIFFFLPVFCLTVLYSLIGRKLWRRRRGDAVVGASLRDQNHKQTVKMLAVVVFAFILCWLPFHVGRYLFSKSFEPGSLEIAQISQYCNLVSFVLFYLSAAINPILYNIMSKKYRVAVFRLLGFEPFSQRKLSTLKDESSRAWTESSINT
Sequence of Calpain-1 catalytic subunit (P07384 whole entry): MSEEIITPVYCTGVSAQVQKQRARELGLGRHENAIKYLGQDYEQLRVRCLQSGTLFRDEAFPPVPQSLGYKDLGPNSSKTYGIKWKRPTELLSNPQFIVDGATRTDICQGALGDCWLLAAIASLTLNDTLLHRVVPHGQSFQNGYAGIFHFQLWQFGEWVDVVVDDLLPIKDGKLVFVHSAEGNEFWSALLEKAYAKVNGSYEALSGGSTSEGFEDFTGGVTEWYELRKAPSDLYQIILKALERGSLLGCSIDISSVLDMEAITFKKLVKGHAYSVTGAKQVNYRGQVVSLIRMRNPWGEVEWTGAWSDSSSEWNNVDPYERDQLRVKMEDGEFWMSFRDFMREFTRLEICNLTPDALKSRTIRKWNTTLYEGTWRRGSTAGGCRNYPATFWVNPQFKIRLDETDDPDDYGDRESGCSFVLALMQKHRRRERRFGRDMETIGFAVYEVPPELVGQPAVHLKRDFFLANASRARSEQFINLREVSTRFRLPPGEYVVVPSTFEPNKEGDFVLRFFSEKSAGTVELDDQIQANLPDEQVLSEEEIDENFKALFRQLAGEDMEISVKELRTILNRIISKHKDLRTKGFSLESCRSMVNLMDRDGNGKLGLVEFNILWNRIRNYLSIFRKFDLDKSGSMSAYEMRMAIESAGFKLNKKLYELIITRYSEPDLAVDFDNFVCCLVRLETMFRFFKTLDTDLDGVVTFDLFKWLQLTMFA
Sequence of Caspase-3 (P42574 29-175 limits assumed): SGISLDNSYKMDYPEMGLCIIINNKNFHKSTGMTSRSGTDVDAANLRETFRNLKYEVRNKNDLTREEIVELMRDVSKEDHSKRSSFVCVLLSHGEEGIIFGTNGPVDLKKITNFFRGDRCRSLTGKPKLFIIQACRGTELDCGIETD
Sequence of Caspase-3 (P42574 176-277 limits assumed): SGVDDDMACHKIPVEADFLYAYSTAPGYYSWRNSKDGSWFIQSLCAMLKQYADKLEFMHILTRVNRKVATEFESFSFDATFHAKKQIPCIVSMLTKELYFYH
Sequence of Acetylcholinesterase (Homo sapiens) (P22303 whole entry): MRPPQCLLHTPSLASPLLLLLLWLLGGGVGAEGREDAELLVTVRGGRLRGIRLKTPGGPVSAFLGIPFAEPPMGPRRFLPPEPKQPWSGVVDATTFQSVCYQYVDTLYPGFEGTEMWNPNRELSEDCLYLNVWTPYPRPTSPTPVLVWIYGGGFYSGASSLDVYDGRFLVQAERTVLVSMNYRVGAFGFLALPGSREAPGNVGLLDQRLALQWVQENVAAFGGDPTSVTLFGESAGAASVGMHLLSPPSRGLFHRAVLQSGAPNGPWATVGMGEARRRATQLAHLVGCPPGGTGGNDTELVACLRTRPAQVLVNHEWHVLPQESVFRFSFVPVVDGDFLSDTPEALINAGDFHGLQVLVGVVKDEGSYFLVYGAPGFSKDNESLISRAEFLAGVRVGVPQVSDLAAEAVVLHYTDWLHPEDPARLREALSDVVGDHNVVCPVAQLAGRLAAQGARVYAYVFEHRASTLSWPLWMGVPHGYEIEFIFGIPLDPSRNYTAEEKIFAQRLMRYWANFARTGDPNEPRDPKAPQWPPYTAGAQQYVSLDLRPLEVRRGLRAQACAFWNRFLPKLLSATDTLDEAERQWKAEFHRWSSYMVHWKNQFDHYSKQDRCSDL
Sequence of B2 bradykinin receptor (Homo sapiens) (P30411 whole entry): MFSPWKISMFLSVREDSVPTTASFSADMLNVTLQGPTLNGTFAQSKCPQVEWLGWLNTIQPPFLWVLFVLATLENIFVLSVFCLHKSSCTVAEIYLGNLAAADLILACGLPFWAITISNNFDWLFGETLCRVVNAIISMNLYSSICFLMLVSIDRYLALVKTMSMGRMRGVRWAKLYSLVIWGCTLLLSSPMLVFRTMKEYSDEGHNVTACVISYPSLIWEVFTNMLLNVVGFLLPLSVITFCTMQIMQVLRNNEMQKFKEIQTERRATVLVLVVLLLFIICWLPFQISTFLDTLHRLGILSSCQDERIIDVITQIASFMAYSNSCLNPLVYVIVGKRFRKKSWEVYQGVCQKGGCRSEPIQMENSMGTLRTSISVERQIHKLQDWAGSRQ
Sequence of Macrophage metalloelastase (P39900 whole entry): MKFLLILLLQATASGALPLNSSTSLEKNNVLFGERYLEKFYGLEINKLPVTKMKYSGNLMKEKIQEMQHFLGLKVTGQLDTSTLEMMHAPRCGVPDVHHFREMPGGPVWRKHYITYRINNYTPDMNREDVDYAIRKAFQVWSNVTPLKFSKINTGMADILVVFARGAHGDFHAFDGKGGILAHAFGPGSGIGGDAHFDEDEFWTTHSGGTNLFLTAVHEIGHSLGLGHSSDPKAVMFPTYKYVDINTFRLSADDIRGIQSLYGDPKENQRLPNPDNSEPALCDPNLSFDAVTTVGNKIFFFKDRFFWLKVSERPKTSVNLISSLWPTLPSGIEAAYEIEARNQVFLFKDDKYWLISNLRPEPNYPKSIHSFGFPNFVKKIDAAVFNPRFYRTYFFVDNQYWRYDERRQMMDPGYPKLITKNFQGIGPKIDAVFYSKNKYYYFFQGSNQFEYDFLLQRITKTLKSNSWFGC
Sequence of 3-hydroxy-3-methylglutaryl-coenzyme A reductase (Homo sapiens) (P04035 whole entry): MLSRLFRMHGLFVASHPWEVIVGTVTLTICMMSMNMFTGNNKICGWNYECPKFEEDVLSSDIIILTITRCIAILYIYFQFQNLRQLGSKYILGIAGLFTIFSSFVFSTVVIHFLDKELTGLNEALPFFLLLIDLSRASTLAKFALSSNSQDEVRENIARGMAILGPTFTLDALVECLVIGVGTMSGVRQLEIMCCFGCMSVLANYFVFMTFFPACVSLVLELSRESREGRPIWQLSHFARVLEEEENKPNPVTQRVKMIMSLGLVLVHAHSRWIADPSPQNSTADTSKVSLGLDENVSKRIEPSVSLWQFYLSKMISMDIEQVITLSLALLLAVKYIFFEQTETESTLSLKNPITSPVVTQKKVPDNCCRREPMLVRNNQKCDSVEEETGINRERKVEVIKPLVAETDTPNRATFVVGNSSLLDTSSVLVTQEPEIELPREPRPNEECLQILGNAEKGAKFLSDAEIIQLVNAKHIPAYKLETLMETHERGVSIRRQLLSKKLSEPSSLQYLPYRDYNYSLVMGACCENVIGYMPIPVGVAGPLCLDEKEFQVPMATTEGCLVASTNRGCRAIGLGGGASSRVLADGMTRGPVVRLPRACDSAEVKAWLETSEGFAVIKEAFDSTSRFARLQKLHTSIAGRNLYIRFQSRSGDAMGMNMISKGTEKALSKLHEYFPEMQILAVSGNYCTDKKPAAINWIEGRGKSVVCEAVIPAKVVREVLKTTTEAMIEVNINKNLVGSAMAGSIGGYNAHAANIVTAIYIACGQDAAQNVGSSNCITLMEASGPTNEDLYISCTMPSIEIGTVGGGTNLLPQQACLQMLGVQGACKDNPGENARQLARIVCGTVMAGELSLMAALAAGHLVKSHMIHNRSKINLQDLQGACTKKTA
Sequence of Delta-type opioid receptor (Homo sapiens) (P41143 whole entry): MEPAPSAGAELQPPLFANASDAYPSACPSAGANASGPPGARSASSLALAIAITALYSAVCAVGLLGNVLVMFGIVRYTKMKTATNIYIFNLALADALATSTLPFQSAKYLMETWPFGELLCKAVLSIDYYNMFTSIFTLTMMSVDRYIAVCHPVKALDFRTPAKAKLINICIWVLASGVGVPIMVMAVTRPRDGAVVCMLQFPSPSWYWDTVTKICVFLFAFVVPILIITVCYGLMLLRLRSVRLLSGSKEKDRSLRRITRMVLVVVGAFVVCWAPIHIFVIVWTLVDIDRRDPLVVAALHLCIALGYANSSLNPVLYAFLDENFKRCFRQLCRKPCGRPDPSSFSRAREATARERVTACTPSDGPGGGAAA

SMILES: Cn1nccc1[C@]1(CNC(=O)c2ccc(F)c(F)c2-c2ccc(C(F)(F)F)cc2)NC(=O)NC1=O
- inhibition [1]: 0%
- IC50 (Caspase-3): > 100 µM
- inhibition [2]: 11%
- inhibition at 10 µM [3]: 0%
- inhibition [4]: -1%
- inhibition [5]: 6%
- inhibition [6]: 0%
- inhibition [7]: -6%
- inhibition [8]: 3%
- inhibition [9]: 11%
- inhibition [10]: -5%
- inhibition [11]: 18%
- inhibition [12]: -4%
- IC50 [13]: > 100 µM
- inhibition [14]: 3%
- IC50 [15]: 5.38 µM
- inhibition [16]: 2%
- inhibition [17]: 0%
- inhibition [18]: 3%
- inhibition [19]: -6%
- IC50 [20]: 78.5 µM
- inhibition [21]: 3%
- inhibition [22]: -6%
- inhibition [23]: 0%
- inhibition [24]: -7%
- inhibition [25]: 0%
- inhibition [26]: -1%
- inhibition [27]: -6%
- inhibition [28]: -1%
- IC50 [29]: 2.25 µM
- inhibition [30]: 2%
- inhibition [31]: 0%
- inhibition [32]: 7%
- IC50 [33]: 32.8 µM

Source: ChEMBL document CHEMBL5723583, “Data for DCP probe BAY-9835” (2024)
